# Patent US9708336B2, “Metallo-beta-lactamase inhibitors” (priority 2014, dated 2017)
# Like-named read-outs stand apart in the source and are kept apart here.
# Legend:
# VIM-1 = VIM-1 (Pseudomonas aeruginosa (strain ATCC 15692 / DSM 22644 / CIP 104116 / JCM 14847 / LMG 12228 / 1C / PRS 101 / PAO1), UniProt A0A0F7KYQ8); assay: Enzyme activity: determination of IC50, fluorescence assay with CCF2-FA substrate (VIM-1); format: biochemical
# Method: Enzyme Activity: Determination of IC50
# The Class B enzyme activities were measured in the presence of the test inhibitor in a fluorescence assay against a commercially available substrate consisting of a cephalosporin core linking 7-hydroxycoumarin to fluorescein (CCF2-FA). The enzyme (NDM-1, IMP-1 or VIM-1) and the substrate were diluted in 100 mM KH2PO4 buffer (pH 7) containing 0.005% Tween-20 and 10 μM ZnSO4. […] The test inhibitor was dissolved in dimethylsulfoxide and diluted 1:50 in the assay, resulting in a final concentration range of 20 uM to 0.00063 uM. In a 384-well microplate, the test inhibitor was incubated with the metallo-β-lactamase enzyme and the substrate for 2 hours at 25° C. Fluorescence at 460 nm following excitation at 405 nm was measured. The IC50 value was determined from semi-logarithmic plots of enzyme inhibition versus inhibitor concentration, with a curve generated using a 4-parameter fit.
# NDM-1 = NDM-1 (Klebsiella pneumoniae, UniProt C7C422); assay: biochemical; format: biochemical; settings: read-out: NDM-1 IC50
# IMP-1 = IMP-1 (Serratia marcescens, UniProt P52699); assay: biochemical; format: biochemical
# [1] = test system: Serratia marcescens expressing IMP-1 (CL5741); assay: Antibiotic potentiation activity: synergistic concentration (MITC95) with imipenem, OD600 growth; format: cell-based; settings: for Serratia marcescens expressing IMP-1 (CL5741) MITC95: concentration giving 95% inhibition of bacterial growth; for Serratia marcescens MITC95: Serratia marcescens expressing IMP-1 (CL5741), 95% growth inhibition
# Procedure, shortened: (§1)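 Clinical MBL-producing strains (E. coli NDM-1, S. marcescens IMP-1, K. pneumoniae VIM-1) from overnight plates were diluted 1:100 into 1.1×CAMHB. Compound was tested with imipenem at 4 μg/ml (optionally 1 μg/ml) or without it. After 22–24 h at 35 °C, growth was read as OD600.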
# [2] = test system: Klebsiella pneumoniae expressing VIM-1 (IHMA599644); assay: as above; format: cell-based; settings: for Klebsiella pneumoniae expressing VIM-1 (IHMA 599644) MITC95: concentration giving 95% inhibition of bacterial growth; for Klebsiella pneumoniae MITC95: Klebsiella pneumoniae expressing VIM-1 (IHMA599644), 95% growth inhibition
# Procedure, shortened: as §1
# [3] = test system: Escherichia coli expressing NDM-1 (CLB30005); assay: as above; format: cell-based; settings: for Escherichia coli expressing NDM-1 (CLB 30005) MITC95: concentration giving 95% inhibition of bacterial growth; for Escherichia coli MITC95: Escherichia coli expressing NDM-1 (CLB30005), 95% growth inhibition
# Procedure, shortened: as §1
# [4] = fluorescence assay with CCF2-FA substrate, read-out: VIM-1 IC50
# [5] = fluorescence assay with CCF2-FA substrate
# [6] = fluorescence assay with CCF2-FA substrate, read-out: IMP-1 IC50
# [7] = VIM-1 IC50, fluorescence assay with CCF2-FA substrate
# [8] = VIM-1 enzyme, CCF2-FA fluorescence assay, read-out: VIM-1 IC50
# [9] = NDM-1 enzyme, CCF2-FA fluorescence assay
# [10] = IMP-1 enzyme, CCF2-FA fluorescence assay, read-out: IMP-1 IC50
# [11] = VIM-1 IC50, VIM-1 enzyme, CCF2-FA fluorescence assay
# Chain of NDM-1 (C7C422 whole entry, looked up, species assumed): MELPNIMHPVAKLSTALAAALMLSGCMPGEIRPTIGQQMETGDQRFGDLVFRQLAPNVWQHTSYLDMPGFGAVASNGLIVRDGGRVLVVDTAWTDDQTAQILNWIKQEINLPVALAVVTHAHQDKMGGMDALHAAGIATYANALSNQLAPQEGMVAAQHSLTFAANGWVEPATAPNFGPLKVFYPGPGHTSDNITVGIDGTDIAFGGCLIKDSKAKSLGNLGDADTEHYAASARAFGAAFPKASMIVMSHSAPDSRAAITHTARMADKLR
# Chain of IMP-1 (P52699 whole entry, looked up): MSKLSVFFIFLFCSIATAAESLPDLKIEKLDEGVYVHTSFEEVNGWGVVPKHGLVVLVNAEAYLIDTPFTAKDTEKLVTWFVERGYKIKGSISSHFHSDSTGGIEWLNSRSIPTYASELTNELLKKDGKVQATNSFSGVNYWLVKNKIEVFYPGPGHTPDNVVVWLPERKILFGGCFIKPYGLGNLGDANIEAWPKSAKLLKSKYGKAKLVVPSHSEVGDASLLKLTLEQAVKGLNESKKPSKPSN
Compound,IC50 (VIM-1; [4]) [µM],IC50 (NDM-1; [5]) [µM],IC50 (IMP-1; [6]) [µM],Serratia marcescens expressing IMP-1 (CL5741) MITC95 [1] [µM],Klebsiella pneumoniae expressing VIM-1 (IHMA 599644) MITC95 [2] [µM],Escherichia coli expressing NDM-1 (CLB 30005) MITC95 [3] [µM],IC50 (VIM-1; [7]) [µM],IC50 (VIM-1; [8]) [µM],IC50 (NDM-1; [9]) [µM],IC50 (IMP-1; [10]) [µM],Serratia marcescens MITC95 [1] [µM],Klebsiella pneumoniae MITC95 [2] [µM],Escherichia coli MITC95 [3] [µM],IC50 (VIM-1; [11]) [µM],IC50 (IMP-1) [µM]
"NS(=O)(=O)c1cccc(-c2ccc(C3CCNC3=O)cc2)c1-c1nnn[nH]1 (stereo not drawn) [Example 27, 4′-(2-oxopyrrolidin-3-yl)-2-(1H-tetrazol-5-yl)biphenyl-3-sulfonamide]",0.0771,0.00223,0.0131,3.125,200,3.125,–,–,–,–,–,–,–,–,–
"NS(=O)(=O)c1ccc(-c2cccc(S(N)(=O)=O)c2-c2nn[nH]n2)cc1 [Example 61, 2-(2H-tetrazol-5-yl)biphenyl-3,4′-disulfonamide]",–,0.00634,0.058,6.25,25,0.5859,0.062,–,–,–,–,–,–,–,–
"Cc1csc(-c2cccc(S(N)(=O)=O)c2-c2nn[nH]n2)n1 [Example 34, 3-(4-methyl-1,3-thiazol-2-yl)-2-(2H-tetrazol-5-yl)benzenesulfonamide]",1.44,0.151,3.09,150,>200,3.125,–,–,–,–,–,–,–,–,–
"CONC(=O)c1ccc(-c2cccc(S(N)(=O)=O)c2-c2nn[nH]n2)cc1 [Example 88, N-methoxy-3′-sulfamoyl-2′-(2H-tetrazol-5-yl)biphenyl-4-carboxamide]",0.243,0.00298,0.0873,12.5,100,1.953,–,–,–,–,–,–,–,–,–
"NS(=O)(=O)c1nncc(-c2ccc(Br)cc2)c1-c1nn[nH]n1 [Example 277, 5-(4-Bromophenyl)-4-(2H-tetrazol-5-yl)pyridazine-3-sulfonamide]",–,–,–,–,–,–,–,1.23,0.296,5.27,125,>200,12.5,–,–
"C[C@H](O)c1nc(-c2ccc(-c3cccc(S(N)(=O)=O)c3-c3nn[nH]n3)cc2)no1 [Example 251, (S)-4′-(5-(1-hydroxyethyl)-1,2,4-oxadiazol-3-yl)-2-(2H-tetrazol-5-yl)-[1,1′-biphenyl]-3-sulfonamide]",–,–,–,–,–,–,–,–,0.00585,0.0425,6.25,200,0.7813,0.0716,–
"NS(=O)(=O)c1cccc(-c2ccc(-c3noc(C4CCNC4)n3)cc2)c1-c1nn[nH]n1 (stereo not drawn) [Example 250, 4′-(5-(pyrrolidin-3-yl)-1,2,4-oxadiazol-3-yl)-2-(2H-tetrazol-5-yl)-[1,1′-biphenyl]-3-sulfonamide]",–,–,–,–,–,–,–,0.195,0.018,0.109,4.688,100,0.7813,–,–
"NS(=O)(=O)c1cccc(-c2ccc(C(O)CO)cc2)c1-c1nn[nH]n1 (stereo not drawn) [Example 321, 4′-(1,2-dihydroxyethyl)-2-(2H-tetrazol-5-yl)-[1,1′-biphenyl]-3-sulfonamide]",–,–,–,–,–,–,–,–,0.0192,0.0935,6.25,50,1.563,0.199,–
"NS(=O)(=O)c1cccc(-c2ccc(-c3ccn[nH]3)cc2)c1-c1nn[nH]n1 [Example 50, 4′-(1H-pyrazol-5-yl)-2-(2H-tetrazol-5-yl)biphenyl-3-sulfonamide]",0.0891,0.00271,0.0379,12.5,200,2.344,–,–,–,–,–,–,–,–,–
"NS(=O)(=O)c1cccc(-c2ccnn2Cc2ccccc2)c1-c1nn[nH]n1 [Example 95, 3-(1-benzyl-1H-pyrazol-5-yl)-2-(2H-tetrazol-5-yl)benzenesulfonamide]",–,0.00151,0.534,106.3,>200,3.906,0.375,–,–,–,–,–,–,–,–
"NC(=O)c1ccc(-c2ccnc(S(N)(=O)=O)c2-c2nnn[nH]2)cc1 [Example 184, 4-(2-Sulfamoyl-3-(1H-tetrazol-5-yl)pyridin-4-yl)benzamide]",0.164,0.0669,0.602,37.5,25,0.5859,–,–,–,–,–,–,–,–,–
"NCCc1ccc(-c2cccc(S(N)(=O)=O)c2-c2nnn[nH]2)cn1 [Example 307, 3-(6-(2-aminoethyl)pyridin-3-yl)-2-(1H-tetrazol-5-yl)benzenesulfonamide]",–,–,–,–,–,–,–,0.0962,0.174,4.89,50,12.5,1.172,–,–
"COc1ccc(-c2cccc(S(N)(=O)=O)c2-c2nn[nH]n2)cc1 [Example 8, 4′-methoxy-2-(2H-tetrazol-5-yl)biphenyl-3-sulfonamide]",–,0.00399,0.0782,3.125,200,0.3906,0.0798,–,–,–,–,–,–,–,–
"NS(=O)(=O)c1cccc(-c2ccc(CO)nc2)c1-c1nnn[nH]1 [Example 258, 3-(6-(Hydroxymethyl)pyridin-3-yl)-2-(1H-tetrazol-5-yl)benzenesulfonamide]",–,–,–,–,–,–,–,0.147,0.0129,0.888,37.5,15.63,1.302,–,–
"CC(C)(C)OC(=O)N1CCN(c2ccc(-c3cccc(S(N)(=O)=O)c3-c3nn[nH]n3)cc2)CC1 [Example 7, tert-butyl 4-[3′-sulfamoyl-2′-(2H-tetrazol-5-yl)biphenyl-4-yl]piperazine-1-carboxylate]",0.486,0.00369,–,12.5,>200,6.25,–,–,–,–,–,–,–,–,0.0294
"NS(=O)(=O)c1nccc(-c2ccc3cn[nH]c3c2)c1-c1nn[nH]n1 [Example 203, 4-(1H-indazol-6-yl)-3-(2H-tetrazol-5-yl)pyridine-2-sulfonamide]",0.0436,0.0186,1.43,50,9.375,0.3906,–,–,–,–,–,–,–,–,–
"CNC(=O)c1ccc(-c2cccc(S(N)(=O)=O)c2-c2nn[nH]n2)cc1 [Example 13, N-methyl-3′-sulfamoyl-2′-(2H-tetrazol-5-yl)biphenyl-4-carboxamide]",0.226,0.00547,0.173,200,200,1.563,–,–,–,–,–,–,–,–,–
